Data reported in ChEMBL document CHEMBL3507680, “University of Dundee, Gates Library screen for HepG2 cell viability”.

Assay: Human HepG2 cell viability assay in 384 well format
Type: toxicity, cell-based
Parameters: dose 125 nL, time 70.5 hour; cytotoxicity at 70.5 h: concentration not given beside the values
Conditions: HepG2 cells, read-out: Inhibition

Row | Structure (SMILES) | cytotoxicity at 70.5 h [%]
1 | CC1CN(Cc2noc(C3CC3)n2)CCN1Cc1noc(C2CC2)n1 (configuration not stated) | -13.7
2 | CC(C)NC(=O)CC1COC2(CCN(Cc3ccco3)CC2)C1 (configuration not stated) | 18
3 | Cc1ccc(CN2CC[C@@H]3O[C@@H](C(=O)N4CCN(C)CC4)C[C@@H]32)cc1 | -1.43
4 | CCc1nc(CN(C)CC(c2cccs2)N2CCOCC2)no1 (configuration not stated) | 18.8
5 | O=C(O)C1(Oc2ccc3ccccc3c2)CCN(c2ncccn2)CC1 | -0.873
6 | CC(CCn1cccn1)Nc1ccc(-c2nccn2C)nn1 (configuration not stated) | 22.7
7 | CCc1nc(CN(C)CC2CCN(CC(C)O)CC2)no1 (configuration not stated) | -4.55
8 | CCCN(C(=O)c1ccncc1)c1nc2c(s1)CCc1c-2cnn1C | 18.2
9 | CS(=O)(=O)N1CCCCC12CCN(c1nncs1)CC2 | -1.19
10 | Cc1cc(CSCc2ccccn2)on1 | -1.54
11 | O=C(c1ccc(CN2CCCCC2)cc1)N1Cc2cnn(CCO)c2C1 | 19.3
12 | COc1ccc(Cl)cc1-c1nc(N)nc(N)n1 | 26
13 | O=C(NCc1ccco1)[C@@H]1COC[C@H]2CN(c3ncc(F)cn3)C[C@H]21 | -7.6
14 | CCC(=O)N1CCCN(C(=O)c2cc(C)cc(Br)c2O)CC1 | -1.86
15 | Cc1cnc(N2C[C@@H]3CN(C4CCOC4)CCC[C@]3(C(=O)O)C2)nc1 (some centres not stated) | -7.9
16 | COCC1CN(C(=O)CC2=CCCCC2)Cc2nnn(CC3CC3)c21 (configuration not stated) | -12
17 | O=C(CCn1cncn1)N1C[C@H]2CC[C@@H]1CN(Cc1ccncc1)C2 | 16.7
18 | O=C(c1ccc(-c2ccc(O)nc2)s1)N1CCCCCC1 | -10.4
19 | Cc1nc(C2CCCN(C(=O)c3cc(Cl)c[nH]3)C2)no1 (configuration not stated) | -15.5
20 | CC(NCc1ccnc(OC2CCC2)c1)c1cnn(C)c1 (configuration not stated) | -15.1
21 | Cc1ocnc1C(=O)N(C)[C@@H]1CC[C@@H](n2ccnc2C)[C@@H]1O | -7.34

Row | Structure (SMILES) | cytotoxicity at 70.5 h [%]
22 | Cc1cc(-c2nn3c(C)nnc3s2)n[nH]1 | 20
23 | Cn1ccnc1CN(CCCO)C1CCCc2ccccc21 (configuration not stated) | 7.41
24 | Cc1cc(C(=O)N2CCn3cnc(COCC4CC4)c3C2)no1 | 0.0472
25 | CS(=O)(=O)NCCCNc1ccc(C(F)(F)F)cc1C#N | -3.55
26 | Cc1cnc(CN2CCCC2c2cnn(C)c2)cn1 (configuration not stated) | -10.3
27 | O=C(COCCc1ccccc1)N1CCCC(n2cncn2)C1 (configuration not stated) | 1.67
28 | N#Cc1ccc(N2CCCN(CC(=O)N3CCC3)CC2)cc1 | -2.99
29 | CCOc1ccc2[nH]c(=O)c(CN3CCC(n4cnnc4)CC3)cc2c1 | -4.91
30 | Cc1cc(CN2CCOC(CN(C)C)C2)no1 (configuration not stated) | 9.18
31 | COc1ccsc1C(=O)NC1CCN(c2ccc(C#N)cc2)CC1 | -5.67
32 | CC(C)=CCCC1(C)C=Cc2c(cc(C)n(CC(=O)O)c2=O)O1 (configuration not stated) | -3.4
33 | O=C(c1ccc2[nH]cnc2c1)N1CCC(Oc2cccnc2)CC1 | -6.98
34 | Oc1nc(N2CCCC2)nc2c1CCN(Cc1cccnc1)CC2 | -5.83
35 | CN(C)C(=O)CN1CCC2(CC1)CN(S(C)(=O)=O)Cc1ccccc1O2 | -4.65
36 | CCOc1ccc(S(=O)(=O)NCCc2ccc(N(C)C)cc2)cc1F | -1.54
37 | COc1ncccc1C(=O)NCCn1cnc(C)cc1=O | -2.32
38 | CC(OCC(F)(F)F)C(=O)N1CCN(S(C)(=O)=O)CC1 (configuration not stated) | -1.69
39 | Cc1ccccc1CNC(C)c1ccc(OCC(=O)NC2CC2)cc1 (configuration not stated) | 13.8
40 | Cc1nn(C)c(C)c1C1CCCN1Cc1noc(C2CC2)n1 (configuration not stated) | 7.14
41 | CN1CC(=O)N(c2ccsc2)CC12CCN(C(=O)c1cccn1C)C2 (configuration not stated) | -5.46
42 | CCOc1ncccc1Cn1cc(-c2nccn2C)nn1 | -10.3

Row | Structure (SMILES) | cytotoxicity at 70.5 h [%]
43 | COCCN1CCC2(COCCN(C(=O)Cc3cccs3)C2)C1 (configuration not stated) | -5.29
44 | Cc1cnn(CCC(=O)N2CCCC(c3noc(C)n3)C2)c1 (configuration not stated) | 1.71
45 | CS(=O)(=O)N[C@@H]1CN(C(=O)c2ccccn2)C[C@@H]2CCCO[C@@H]21 | -9.33
46 | CCn1nc(C(=O)N2CCCC2c2noc(C)n2)ccc1=O (configuration not stated) | -3.84
47 | CCNc1ncc(C(=O)NCC2OCCc3ccccc32)cn1 (configuration not stated) | -3.21
48 | O=S(=O)(CCCN1CCCCC1Cn1cncn1)c1ccccc1 (configuration not stated) | -4.13
49 | CNC(=O)NCC(=O)N1CCCC1Cc1cccc(F)c1 (configuration not stated) | 2.87
50 | CCN(Cc1ccccc1)c1ncnc2c(C)nn(CC)c12 | -4.47
51 | Cc1cc(-c2ccccc2Cl)nc(N)n1 | -8.36
52 | CCn1c(CN2CCCC2)nnc1C1CCN(Cc2ccncc2)CC1 | 19.4
53 | Cc1ccc(N2CCO[C@H]3CN(Cc4ccccn4)C[C@H]32)nn1 | -9.99
54 | Cc1ccc(CNCC2Cn3nnc(-c4cnn(C)c4)c3CO2)o1 (configuration not stated) | 15.6
55 | CC(C)=Cc1c(-c2ccccc2)ncn1CCS(C)(=O)=O | 7.25
56 | CS(=O)(=O)N1CC2(CCN(C3COC3)C2)Cc2ccccc21 (configuration not stated) | -4.95
57 | OCCN1CCCC(c2cccc(-c3ccccc3F)n2)C1 (configuration not stated) | -5.22
58 | CCn1ccnc1CN1CCN(CCOc2cccc(C#N)c2)CC1 | -5.28
59 | CSC1=Nc2c(cnn2-c2cccc(Cl)c2)C2=NCCCN12 | -12
60 | COc1ccc(CN2C[C@@H]3OCCN(CCN4CCCC4)[C@@H]3C2)cc1 | 11.2
61 | COc1ccc(CN2CCC(C(N)=O)C2)c(Br)c1OC (configuration not stated) | 0.0817
62 | CN1CCN(C(=O)c2nc3c(s2)CCCN3C(=O)C2CC2)CC1 | -3.93
63 | O=C(CC1CCN(c2cccnn2)CC1)Nc1nncs1 | -5.72

Row | Structure (SMILES) | cytotoxicity at 70.5 h [%]
64 | O=C(CC1CC1)N1CCn2cc(Cn3cncn3)nc2C1 | -18.5
65 | Cc1nc(CNC(=O)C(C)Oc2ccccc2F)no1 (configuration not stated) | -5.02
66 | CN1CCCCC1CC(=O)Nc1ccc2ncn(C)c2c1 (configuration not stated) | 13.5
67 | CCOC(=O)C1CN(CC2CC2)Cc2ncn(CC)c21 (configuration not stated) | -2.34
68 | CC[C@H]1CN2CC[C@H]1C[C@@H]2CNCc1cccc(C#N)c1 | 13
69 | CNc1ncccc1C(=O)N1CCN(Cc2ccc(C)cc2)C(=O)C1C (configuration not stated) | -13.8
70 | CC(C)NC(=O)[C@@H]1C[C@H](N)CN1C(=O)c1cc2ccccc2[nH]c1=O | -8.06
71 | N#CCCN(CCC#N)Cc1ccc(Br)c2cccnc12 | 4.54
72 | Cc1ccc(-c2nc(CN3CCOCC3)no2)cc1N1CCNC1=O | -6.32
73 | Cc1nc(NCCN2CCCC2=O)cc(C2CN(C)CCO2)n1 (configuration not stated) | 1.86
74 | COc1cc(-c2cc(-c3ccn(C)c3)nc(N)c2C#N)cc(OC)c1O | -1.48
75 | CCCn1ccc(C(=O)N2CCC(C)CC2)n1 | -11.6
76 | CC(C)n1c2ccccc2c2c1cc(C(=O)NCCO)n2C(=O)N(C)C | -4.08
77 | CCCN(CC)Cc1ccc(C(=O)NCC2COCCO2)c(=O)[nH]1 (configuration not stated) | -6.16
78 | c1coc(-c2nc3c(c(NCc4n[nH]c5c4CCC5)n2)CCNCC3)c1 | 7.72
79 | O=C1COC[C@H]([C@H](O)c2ccc(NC(=O)c3cccnc3)cc2)N1 | -5.64
80 | CCN1CC(COC(=O)c2ccc(N(C)C)cc2F)CC1=O (configuration not stated) | -3.33
81 | COc1cc(CNCc2c(C)nn(C)c2N(C)C)ccn1 | -1.56
82 | CC(=O)NCC(=O)N1CCc2[nH]c(-c3ccccc3)nc2C1 | -1.22
